Data on 17 molecules can be found in patent US20260022118A1, “HETEROCYCLIC COMPOUNDS AS NRAS INHIBITORS” (Board of Regents, The University of Texas System, priority 2023, published 2026).

The first assay concerns THP-1 cells expressing G12D (NRAS G12D). As to the kind of experiment: Inhibition of NRAS G12D-mediated phosphorylation of ERK (AlphaLISA p-ERK1/2) in THP-1 cells. The class given is cell-based. The conditions noted are these: Homo sapiens, THP-1, 2 h, 2 hours incubation, HBSS with 0% or 10% FBS, p-ERK1/2 (Thr202/Tyr204) AlphaLISA, read-out: pERK THP-1 IC50. How it is done: Inhibition of NRAS G12D-Mediated Phosphorylation of ERK by Exemplary Compounds of Formulas I, II, and III.
This Example illustrates that exemplary compounds and salts thereof described herein inhibit the phosphorylation of ERK downstream of NRAS G12D.
THP-1 cells (ATCC TIB-202) expressing G12D were maintained in RPMI-1640 medium supplemented with 10% fetal bovine serum (FBS), 0.05 mM 2-mercaptoethanol, and penicillin/streptomycin. Cells (20,000/well) were seeded onto a 384 well plate in 20 μL of HBSS supplemented with 0% or 10% FBS. Cells were incubated in the absence or presence of various concentrations of test compound (final 1% DMSO) for 2 hours. p-ERK expression was assessed using the AlphaLISA SureFire Ultra p-ERK1/2 (Thr202/Tyr204) (PerkinElmer®, ALSU-PERK-A10K) following manufacturer recommendation. Plates were read on a PerkinElmer® Envision Multimode plate reader. Dose-response curves were analyzed using IC50 regression curve fitting (GeneData Screener). Curves were plotted as a percent control and normalized by high controls without inhibitor (100%), and low controls (0%) containing 1 μM of trametinib, a potent MEK inhibitor.
For `C#Cc1c(F)ccc2cc(O)cc(-c3ncc4c([C@H]5[C@@H]6CNC[C@@H]65)nn(C)c4c3F)c12` [Example 3, 4-(3-((1R,5S,6r)-3-azabicyclo[3.1.0]hexan-6-yl)-7-fluoro-1-methyl-1H-pyrazolo[4,3-c]pyridin-6-yl)-5-ethynyl-6-fluoronaphthalen-2-ol], the IC50 (usually the concentration that gives 50% inhibition) turned out to be 0.925 µM.

The target of the next assay is NRAS G12D C118S (Homo sapiens (Human), UniProt P01111, C118S/G12D). As to the kind of experiment: NRas G12D Surface Plasmon Resonance (SPR) binding assay. The conditions noted are these: Avi-tagged biotinylated NRAS G12D C118S on streptavidin chip, 25° C., 1:1 kinetic or steady-state fit. How it is done: NRas G12D Surface Plasmon Resonance (SPR) Binding Assay
NRAS G12D C118S, sequence (P01111 whole entry G12D/C118S): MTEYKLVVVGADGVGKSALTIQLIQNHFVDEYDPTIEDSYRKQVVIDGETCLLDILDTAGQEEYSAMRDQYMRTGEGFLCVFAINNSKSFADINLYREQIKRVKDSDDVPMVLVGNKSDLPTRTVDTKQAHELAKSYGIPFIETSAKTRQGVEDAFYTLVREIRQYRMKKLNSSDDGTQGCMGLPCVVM
This Example illustrates that exemplary compounds and salts thereof described herein bind to NRAS G12D as measured by surface plasmon resonance (SPR).
Two liters of 1.03× running buffer (1.03×HBS-P+pH 7.4, containing 0.0103 M HEPES, 0.1545 M NaCl, 0.0515% v/v Surfactant P20 (Cytiva®, BR100671); 5.15 mM MgCl2 (Invitrogen, AM9530G); 0.515 mM TCEP, pH 8.0 (GoldBio®, TCEP25)) was prepared and filter sterilized using a 0.22 μm filter. A 1-L volumetric flask was filled partway with this buffer. A 30-mL volumetric flask was used to measure 30 mL of 100% DMSO (Sigma Aldrich®, 41639-100ML) which was added to the 1-L flask. The solution in the 1-L flask was brought up to 1 L with 1.03× buffer, resulting in a 1.0× assay running buffer containing 1.0×HBS-P+, 5 mM MgCl2, […], and 3% DMSO. Remaining 1.03× buffer was used for preparation of samples and immobilization running buffer.
Samples were prepared in a standard conical-bottomed 384-well microplate by adding 2 μL 10 mM DMSO cpd stock to each well, followed by 8 μL DMSO. A control compound was selected based off of its relatively “fast” kinetics that could be fitted by 1:1 kinetic fitting, as well as by steady-state fitting. Control wells for periodic injection to assess protein activity throughout the assay were also assembled, by diluting 10 mM compound 1:30 in DMSO, then adding 20 μL to the appropriate wells, such that the final concentration of compound would be 10 μM, and the final concentration of DMSO would be 3%. A Biomek™ FXP Laboratory Automation Workstation was used to stamp 20 μL DMSO into all sample wells—minus the control wells—according to the plate map, and then serially dilute 1:3 by mixing and aspirating 10 μL, delivering into the 20 μL of DMSO in the next well, resulting in 10-point serial dilution curves. A Biotek™ Multiflo EL406 Washer Dispenser was used to deliver 80 μL of 1.03× buffer to the compound plate. The plate was mixed 10× by FX, then a final dilution was performed by stamping 18 μL from the compound plate into a 384-well deep-well plate that had also been previously filled with 102 μL 1.03× buffer via the Multiflo. The solution in the deep-well plate was mixed 10× by FX, then sealed with a 384-well microplate foil from Cytiva® (Cytiva® BR100577) and placed on an orbital shaker for 30 minutes at 1000 RPM to ensure complete mixing of the DMSO solution in the buffer. A solvent correction curve was also prepared by making a 4% DMSO solution in 1.03× buffer and diluting in 1.03× buffer such that there were eight solutions of decreasing DMSO concentrations resulting in a high DMSO concentration of 4% and a low concentration of 2% DMSO.
Immobilization running buffer was prepared in a 200-mL volume by diluting 1.03× running buffer prepared above to 1.0×. A Cytiva® Streptavidin chip (Cytiva®, 29104992) was docked into a Biacore™ S200 instrument, and the instrument was then primed three times into the immobilization running buffer. A protein stock of Avi-tagged NRAS G12D C118S was prepared in-house and biotinylated using the Bulk BirA: BirA biotin-protein ligase bulk reaction kit from Avidity (Avidity®, Bulk BirA). Upon completion of the biotinylation reaction, Amicon® ultra 0.5-mL Centrifugal Filters with a MWCO of 3 k Da (Millipore® UFC500396) were used to reduce the free biotin concentration below 0.1 μM in the protein sample over the course of eight desalting cycles, according to the manufacturer's protocol. Resulting protein concentration was not measured directly as an accurate protein concentration is not required for immobilizing protein on the chip surface; however, a theoretical yield of ≤1.5 mg/mL was estimated based off of retained volumes during the desalting process. Reagents for immobilization were prepared as instructed in the Biacore™ 5200 Control Software Immobilization Wizard, including solutions of 1 M NaCl in 50 mM NaOH, and 1 M NaCl in 50 mM NaOH and 50% isopropyl alcohol. […]
`C#Cc1c(F)ccc2cc(O)cc(-c3ncc4c([C@H]5[C@@H]6CNC[C@@H]65)cn(C)c4c3F)c12` [Example 2, 4-(3-((1R,5S,6S)-3-azabicyclo[3.1.0]hexan-6-yl)-7-fluoro-1-methyl-1H-pyrrolo[3,2-c]pyridin-6-yl)-5-ethynyl-6-fluoronaphthalen-2-ol 2,2,2-trifluoroacetate]: binding was characterised by a dissociation constant (Kd) of 0.0526 µM. That is a double-digit nanomolar value.
Consider `C#Cc1c(F)ccc2cc(O)cc(-c3ncc4c([C@H]5[C@@H]6CNC[C@@H]65)nn(C)c4c3F)c12` [Example 3, 4-(3-((1R,5S,6r)-3-azabicyclo[3.1.0]hexan-6-yl)-7-fluoro-1-methyl-1H-pyrazolo[4,3-c]pyridin-6-yl)-5-ethynyl-6-fluoronaphthalen-2-ol], for which the Kd (usually the free concentration of one partner at which half of the binding sites on the other are occupied at equilibrium, for simple one-to-one binding) stood at 0.085 µM.
The same measure, in the same setting: the value for `C#Cc1c(F)ccc2cc(O)cc(-c3cc4c(cn3)c(N3CC5CCC(C3)N5)nn4CC)c12` [Example 6, 4-(3-(3,8-diazabicyclo[3.2.1]octan-3-yl)-1-ethyl-1H-pyrazolo[4,3-c]pyridin-6-yl)-5-ethynyl-6-fluoronaphthalen-2-ol] was 8.2 µM; that for `C#Cc1c(F)ccc2cc(O)cc(-c3cc4c(cn3)c(N3CC5CCC(C3)N5)nn4CCC)c12` [Example 7, 4-(3-(3,8-diazabicyclo[3.2.1]octan-3-yl)-1-propyl-1H-pyrazolo[4,3-c]pyridin-6-yl)-5-ethynyl-6-fluoronaphthalen-2-ol] was 4.75 µM; that for `C#Cc1c(F)ccc2cc(O)cc(-c3ncc4c(C5=CC6CCC(C5)N6)nn(CC)c4c3F)c12` (stereo not drawn) [Example 9, 4-(3-(8-azabicyclo[3.2.1]oct-2-en-3-yl)-1-ethyl-7-fluoro-1H-pyrazolo[4,3-c]pyridin-6-yl)-5-ethynyl-6-fluoronaphthalen-2-ol] was 16.2 µM.
The same measure, in the same setting: the value for `C#Cc1c(F)ccc2cc(O)cc(-c3ncc4c(N5CCNCC5)nn(CC)c4c3F)c12` [Example 10, 4-(1-ethyl-7-fluoro-3-(piperazin-1-yl)-1H-pyrazolo[4,3-c]pyridin-6-yl)-5-ethynyl-6-fluoronaphthalen-2-ol] was 38.7 µM; that for `C#Cc1c(F)ccc2cc(O)cc(-c3ncc4c(N[C@H]5[C@@H]6CNC[C@@H]65)nn(CC)c4c3F)c12` [Example 11, 4-(3-(((1R,5S,6s)-3-azabicyclo[3.1.0]hexan-6-yl)amino)-1-ethyl-7-fluoro-1H-pyrazolo[4,3-c]pyridin-6-yl)-5-ethynyl-6-fluoronaphthalen-2-ol] was 31 µM.
The same measure, in the same setting: for `C#Cc1c(F)ccc2cc(O)cc(-c3ncc4c(NCC5(N(C)C)CCC5)nn(CC)c4c3F)c12` [Example 12, 4-(3-(((1-(dimethylamino)cyclobutyl)methyl)amino)-1-ethyl-7-fluoro-1H-pyrazolo[4,3-c]pyridin-6-yl)-5-ethynyl-6-fluoronaphthalen-2-ol] the value was 8.35 µM.
Molecule `C#Cc1c(F)ccc2cc(O)cc(-c3ncc4c(N5CC6CCC(C5)N6)nn(CCC)c4c3F)c12` [Example 14, 4-(3-(3,8-diazabicyclo[3.2.1]octan-3-yl)-7-fluoro-1-propyl-1H-pyrazolo[4,3-c]pyridin-6-yl)-5-ethynyl-6-fluoronaphthalen-2-ol] had an equilibrium dissociation constant (Kd) of 4.41 µM.
On the same count and under the same terms, the value for `C#Cc1c(F)ccc2cc(O)cc(-c3ncc4c(N5CC6CCC(C5)N6)nn(CC5CCOC5)c4c3F)c12` (stereo not drawn) [Example 15, 4-(3-(3,8-diazabicyclo[3.2.1]octan-3-yl)-7-fluoro-1-((tetrahydrofuran-3-yl)methyl)-1H-pyrazolo[4,3-c]pyridin-6-yl)-5-ethynyl-6-fluoronaphthalen-2-ol] was 5.97 µM; that for `C#Cc1c(F)ccc2cc(O)cc(-c3ncc4c(N5CC6CCC(C5)N6)nn(C5CCC5)c4c3F)c12` [Example 16, 4-(3-(3,8-diazabicyclo[3.2.1]octan-3-yl)-1-cyclobutyl-7-fluoro-1H-pyrazolo[4,3-c]pyridin-6-yl)-5-ethynyl-6-fluoronaphthalen-2-ol] was 5.65 µM.
On the same count and under the same terms, the value for `C#Cc1c(F)ccc2cc(O)cc(-c3ncc4c(N5CC6CCC(C5)N6)n[nH]c4c3F)c12` [Example 17, 4-(3-(3,8-diazabicyclo[3.2.1]octan-3-yl)-7-fluoro-1H-pyrazolo[4,3-c]pyridin-6-yl)-5-ethynyl-6-fluoronaphthalen-2-ol] was 30.8 µM.
On to `C#Cc1c(F)ccc2cc(O)cc(-c3cc4[nH]nc(N5CC6CCC(C5)N6)c4cn3)c12` [Example 18, 4-(3-(3,8-diazabicyclo[3.2.1]octan-3-yl)-1H-pyrazolo[4,3-c]pyridin-6-yl)-5-ethynyl-6-fluoronaphthalen-2-ol], for which binding was put at a Kd of 40.5 µM. This Kd and that of the molecule before are within 1.5-fold of each other.
As to `C#Cc1c(F)ccc2cc(O)cc(-c3cc4c(cn3)c(N3C5CCC3CNC5)nn4C)c12` [Example 19, 4-(3-(3,8-diazabicyclo[3.2.1]octan-8-yl)-1-methyl-1H-pyrazolo[4,3-c]pyridin-6-yl)-5-ethynyl-6-fluoronaphthalen-2-ol], the equilibrium dissociation constant (Kd) stood at 6.1 µM. This Kd is about 6.6-fold lower than that of the molecule before.
The same measure, in the same setting: for `C#Cc1c(F)ccc2cc(O)cc(-c3ncc4c([C@H]5[C@@H]6CNC[C@@H]65)nn(CC)c4c3F)c12` [Example 20, 4-(3-((1R,5S,6r)-3-azabicyclo[3.1.0]hexan-6-yl)-1-ethyl-7-fluoro-1H-pyrazolo[4,3-c]pyridin-6-yl)-5-ethynyl-6-fluoronaphthalen-2-ol] the value was 0.159 µM.
Still for that read-out and setting: the value for `C#Cc1c(F)ccc2cc(O)cc(-c3cc4c(cn3)c([C@H]3[C@@H]5CNC[C@@H]53)cn4C)c12` [Example 22, 4-(3-((1R,5S,6s)-3-azabicyclo[3.1.0]hexan-6-yl)-1-methyl-1H-pyrrolo[3,2-c]pyridin-6-yl)-5-ethynyl-6-fluoronaphthalen-2-ol] was 1.64 µM.
Same read-out and setting: for `C#Cc1c(F)ccc2cc(O)cc(-c3ncc4c([C@H]5[C@@H]6CNC[C@@H]65)c(CO)n(C)c4c3F)c12` [Example 23, 4-(3-((1R,5S,6s)-3-azabicyclo[3.1.0]hexan-6-yl)-7-fluoro-2-(hydroxymethyl)-1-methyl-1H-pyrrolo[3,2-c]pyridin-6-yl)-5-ethynyl-6-fluoronaphthalen-2-ol] the value was 13.7 µM.
